test system: MCF-10A; test: Cancer activity screen (MTT cell survival), MCF-10A; format: cell-based; conditions: Homo sapiens

Structure (SMILES) | IC50 [µM]
CCn1c(=O)/c(=C2\Sc3ccc(OC)cc3N2C)s/c1=C\c1cccc[n+]1Cc1ccccc1 | 1.74 ± 0.19
CN1/C(=c2\s/c(=C\c3cccc[n+]3Cc3ccccc3)n(Cc3ccccc3)c2=O)Sc2ccccc21 | 1.34 ± 0.16
CCn1c(=O)/c(=C2\Sc3ccccc3N2C)s/c1=C\c1cccc[n+]1Cc1ccc(F)c(F)c1 | 3.06 ± 0.38
CCn1c(=O)/c(=C2\Sc3ccccc3N2C)s/c1=C\c1ccc(F)c[n+]1C | 5.34 ± 0.26
CCn1c(=O)/c(=C2\Sc3c(cccc3C(F)(F)F)N2C)s/c1=C\c1cccc[n+]1Cc1ccc(F)c(F)c1 | 4.77 ± 0.48
CCn1c(=O)/c(=C2\Sc3c(ccc(F)c3F)N2C)s/c1=C\c1cccc[n+]1Cc1ccccc1 | 1.36 ± 0.16
CCn1c(=O)/c(=C2\Sc3c(cccc3C(F)(F)F)N2C)s/c1=C\c1cccc[n+]1Cc1ccccc1 | 2.45 ± 0.26
CCn1c(=O)/c(=C2\Sc3ccccc3N2C)s/c1=C\c1cccc[n+]1Cc1ccccc1 | 1.46 ± 0.15
CCn1c(=O)/c(=C2\Sc3cccc(Cl)c3N2C)s/c1=C\c1scc[n+]1Cc1ccccc1 [drawing 57] | 1.14 ± 0.15
CCn1c(=O)/c(=C2\Sc3cccc(F)c3N2C)s/c1=C\c1scc[n+]1Cc1ccccc1 [drawing 56] | 1.07 ± 0.05
CCn1c(=O)/c(=C2\Sc3cccc(Cl)c3N2C)s/c1=C\c1cccc[n+]1Cc1ccccc1 | 0.61 ± 0.09
CN1/C(=c2\s/c(=C\c3cc(Cl)cc[n+]3C)n(Cc3ccccc3)c2=O)Sc2ccccc21 | 1.12 ± 0.04

test system: MCF-7; test: Cancer activity screen (MTT cell survival), MCF-7; format: cell-based; conditions: Homo sapiens, MCF7

Structure (SMILES) | IC50 [µM]
CCn1c(=O)/c(=C2\Sc3cccc(F)c3N2C)s/c1=C\c1cccc[n+]1Cc1ccc(CNC(=O)OC(C)(C)C)cc1 | 1.39 ± 0.24
CCn1c(=O)/c(=C2\Sc3ccc(OC)cc3N2C)s/c1=C\c1cccc[n+]1Cc1ccccc1 | 1.6 ± 0.36
CCn1c(=O)/c(=C2\Sc3ccc(Cl)cc3N2C)s/c1=C\c1scc[n+]1Cc1ccccc1 | 0.83 ± 0.23
CN1/C(=c2\s/c(=C\c3cccc[n+]3Cc3ccccc3)n(Cc3ccccc3)c2=O)Sc2ccccc21 | 2.15 ± 0.68
CCn1c(=O)/c(=C2\Sc3ccccc3N2C)s/c1=C\c1cccc[n+]1Cc1ccc(F)c(F)c1 | 9.6 ± 2.98
CCn1c(=O)/c(=C2\Sc3ccccc3N2C)s/c1=C\c1ccc(F)c[n+]1C | > 30
CCn1c(=O)/c(=C2\Sc3c(cccc3C(F)(F)F)N2C)s/c1=C\c1cccc[n+]1Cc1ccc(F)c(F)c1 | 5.35 ± 1.54
CCn1c(=O)/c(=C2\Sc3c(ccc(F)c3F)N2C)s/c1=C\c1cccc[n+]1Cc1ccccc1 | 2.1 ± 0.43
CCn1c(=O)/c(=C2\Sc3c(cccc3C(F)(F)F)N2C)s/c1=C\c1cccc[n+]1Cc1ccccc1 | 2.31 ± 0.43
CCn1c(=O)/c(=C2\Sc3ccccc3N2C)s/c1=C\c1cccc[n+]1Cc1ccccc1 | 1.49 ± 0.22
CCn1c(=O)/c(=C2\Sc3cccc(Cl)c3N2C)s/c1=C\c1scc[n+]1Cc1ccccc1 [drawing 57] | 0.83 ± 0.19
CCn1c(=O)/c(=C2\Sc3cccc(F)c3N2C)s/c1=C\c1scc[n+]1Cc1ccccc1 [drawing 56] | 0.96 ± 0.2
CCn1c(=O)/c(=C2\Sc3c(Cl)cccc3N2C)s/c1=C\c1scc[n+]1Cc1ccccc1 | 1.05 ± 0.79
CCn1c(=O)/c(=C2\Sc3cccc(Cl)c3N2C)s/c1=C\c1cccc[n+]1Cc1ccccc1 | 1.37 ± 0.27
CN1/C(=c2\s/c(=C\c3cc(Cl)cc[n+]3C)n(Cc3ccccc3)c2=O)Sc2ccccc21 | 2.81 ± 1.01
CCn1c(=O)/c(=C2\Sc3cc(Cl)ccc3N2C)s/c1=C\c1scc[n+]1Cc1ccccc1 | 0.71 ± 0.22

same assay, conditions: Homo sapiens, MCF7; second table

Structure (SMILES) | IC50 [µM]
CCn1c(=O)/c(=C2\Sc3cc(F)ccc3N2C)s/c1=C\c1cccc[n+]1CC | 0.9 ± 0.3
CCn1c(=O)/c(=C2\Sc3cccc(F)c3N2C)s/c1=C\c1cccc[n+]1CC | 1 ± 0.3
CCn1c(=O)/c(=C2\Sc3ccc(F)cc3N2C)s/c1=C\c1cccc[n+]1CC | 2.4 ± 0.6
CCn1c(=O)/c(=C2\Sc3cc(OC(F)(F)F)ccc3N2C)s/c1=C\c1scc[n+]1Cc1ccccc1 | 0.4 ± 0.04
CCn1c(=O)/c(=C2\Sc3ccccc3N2C)s/c1=C\c1scc[n+]1Cc1ccccc1 | 0.6 ± 0.04
CCn1c(=O)/c(=C2\Sc3c(F)cccc3N2C)s/c1=C\c1cccc[n+]1CC | 0.8 ± 0.1
CCn1c(=O)/c(=C2\Sc3ccccc3N2C)s/c1=C\c1scc[n+]1CC | 0.8 ± 0.1

test system: HeLa; test: Cancer activity screen (MTT cell survival), HeLa; format: cell-based; conditions: Homo sapiens

Structure (SMILES) | IC50 [µM]
CCn1c(=O)/c(=C2\Sc3cccc(F)c3N2C)s/c1=C\c1cccc[n+]1Cc1ccc(CNC(=O)OC(C)(C)C)cc1 | 7.6 ± 0.99
CCn1c(=O)/c(=C2\Sc3ccc(OC)cc3N2C)s/c1=C\c1cccc[n+]1Cc1ccccc1 | 3.63 ± 0.32
CCn1c(=O)/c(=C2\Sc3ccc(Cl)cc3N2C)s/c1=C\c1scc[n+]1Cc1ccccc1 | 4.32 ± 0.43
CN1/C(=c2\s/c(=C\c3cccc[n+]3Cc3ccccc3)n(Cc3ccccc3)c2=O)Sc2ccccc21 | 5.89 ± 0.87
CCn1c(=O)/c(=C2\Sc3ccccc3N2C)s/c1=C\c1cccc[n+]1Cc1ccc(F)c(F)c1 | 12.3 ± 1.21
CCn1c(=O)/c(=C2\Sc3ccccc3N2C)s/c1=C\c1ccc(F)c[n+]1C | 15 ± 0.98
CCn1c(=O)/c(=C2\Sc3c(cccc3C(F)(F)F)N2C)s/c1=C\c1cccc[n+]1Cc1ccc(F)c(F)c1 | 8.47 ± 0.89
CCn1c(=O)/c(=C2\Sc3c(ccc(F)c3F)N2C)s/c1=C\c1cccc[n+]1Cc1ccccc1 | 6 ± 0.64
CCn1c(=O)/c(=C2\Sc3c(cccc3C(F)(F)F)N2C)s/c1=C\c1cccc[n+]1Cc1ccccc1 | 21.1 ± 3.96
CCn1c(=O)/c(=C2\Sc3ccccc3N2C)s/c1=C\c1cccc[n+]1Cc1ccccc1 | 3.29 ± 0.36
CCn1c(=O)/c(=C2\Sc3cccc(Cl)c3N2C)s/c1=C\c1scc[n+]1Cc1ccccc1 [drawing 57] | 1.87 ± 0.23
CCn1c(=O)/c(=C2\Sc3cccc(F)c3N2C)s/c1=C\c1scc[n+]1Cc1ccccc1 [drawing 56] | 2.23 ± 0.28
CCn1c(=O)/c(=C2\Sc3c(Cl)cccc3N2C)s/c1=C\c1scc[n+]1Cc1ccccc1 | 3.93 ± 0.51
CCn1c(=O)/c(=C2\Sc3cccc(Cl)c3N2C)s/c1=C\c1cccc[n+]1Cc1ccccc1 | 3.7 ± 0.35
CCn1c(=O)/c(=C2\Sc3cc(Cl)ccc3N2C)s/c1=C\c1scc[n+]1Cc1ccccc1 | 0.83 ± 0.2

test system: MDA-MB-231; test: Cancer activity screen (MTT cell survival), MDA-MB-231; format: cell-based; conditions: Homo sapiens

Structure (SMILES) | IC50 [µM]
CCn1c(=O)/c(=C2\Sc3cccc(F)c3N2C)s/c1=C\c1cccc[n+]1Cc1ccc(CNC(=O)OC(C)(C)C)cc1 | 1.99 ± 0.33
CCn1c(=O)/c(=C2\Sc3ccc(OC)cc3N2C)s/c1=C\c1cccc[n+]1Cc1ccccc1 | 1.43 ± 0.19
CCn1c(=O)/c(=C2\Sc3ccc(Cl)cc3N2C)s/c1=C\c1scc[n+]1Cc1ccccc1 | 0.62 ± 0.1
CN1/C(=c2\s/c(=C\c3cccc[n+]3Cc3ccccc3)n(Cc3ccccc3)c2=O)Sc2ccccc21 | 1.8 ± 0.34
CCn1c(=O)/c(=C2\Sc3ccccc3N2C)s/c1=C\c1cccc[n+]1Cc1ccc(F)c(F)c1 | 4.4 ± 0.39
CCn1c(=O)/c(=C2\Sc3ccccc3N2C)s/c1=C\c1ccc(F)c[n+]1C | 7.82 ± 0.78
CCn1c(=O)/c(=C2\Sc3c(cccc3C(F)(F)F)N2C)s/c1=C\c1cccc[n+]1Cc1ccc(F)c(F)c1 | 6.16 ± 1.33
CCn1c(=O)/c(=C2\Sc3c(ccc(F)c3F)N2C)s/c1=C\c1cccc[n+]1Cc1ccccc1 | 2.64 ± 0.35
CCn1c(=O)/c(=C2\Sc3c(cccc3C(F)(F)F)N2C)s/c1=C\c1cccc[n+]1Cc1ccccc1 | 3.46 ± 0.39
CCn1c(=O)/c(=C2\Sc3ccccc3N2C)s/c1=C\c1cccc[n+]1Cc1ccccc1 | 1.02 ± 0.2
CCn1c(=O)/c(=C2\Sc3cccc(Cl)c3N2C)s/c1=C\c1scc[n+]1Cc1ccccc1 [drawing 57] | 0.41 ± 0.02
CCn1c(=O)/c(=C2\Sc3cccc(F)c3N2C)s/c1=C\c1scc[n+]1Cc1ccccc1 [drawing 56] | 0.4 ± 0.03
CCn1c(=O)/c(=C2\Sc3c(Cl)cccc3N2C)s/c1=C\c1scc[n+]1Cc1ccccc1 | 0.55 ± 0.05
CCn1c(=O)/c(=C2\Sc3cccc(Cl)c3N2C)s/c1=C\c1cccc[n+]1Cc1ccccc1 | 0.72 ± 0.18
CN1/C(=c2\s/c(=C\c3cc(Cl)cc[n+]3C)n(Cc3ccccc3)c2=O)Sc2ccccc21 | 2.83 ± 0.26
CCn1c(=O)/c(=C2\Sc3cc(Cl)ccc3N2C)s/c1=C\c1scc[n+]1Cc1ccccc1 | 0.39 ± 0.03

same assay, conditions: Homo sapiens, second table

Structure (SMILES) | IC50 [µM]
CCn1c(=O)/c(=C2\Sc3cc(F)ccc3N2C)s/c1=C\c1cccc[n+]1CC | 8.3 ± 1.1
CCn1c(=O)/c(=C2\Sc3cc(Cl)ccc3N2C)s/c1=C\c1ccc(C#N)c[n+]1Cc1ccccc1 | 1.92 ± 0.16
CCn1c(=O)/c(=C2\Sc3cccc(F)c3N2C)s/c1=C\c1cccc[n+]1CC | 3.8 ± 0.2
CCn1c(=O)/c(=C2\Sc3ccc(F)cc3N2C)s/c1=C\c1cccc[n+]1CC | 13.3 ± 0.7
CCn1c(=O)/c(=C2\Sc3cc(OC(F)(F)F)ccc3N2C)s/c1=C\c1scc[n+]1Cc1ccccc1 | 0.8 ± 0.1
CCn1c(=O)/c(=C2\Sc3ccccc3N2C)s/c1=C\c1scc[n+]1Cc1ccccc1 | 0.5 ± 0.1
CCn1c(=O)/c(=C2\Sc3c(F)cccc3N2C)s/c1=C\c1cccc[n+]1CC | 2.8 ± 0.2
CCn1c(=O)/c(=C2\Sc3ccccc3N2C)s/c1=C\c1scc[n+]1CC | 2.2 ± 0.2

test system: MEF (C57BL/6); test: Cell survival, MEF; format: cell-based; conditions: Mus musculus; read-out: IC50/μM MEF (C57BL/6)

Structure (SMILES) | IC50 [µM]
CCn1c(=O)/c(=C2\Sc3ccccc3N2C)s/c1=C\c1cccc[n+]1Cc1ccccc1 | 14.6 ± 1.17
CCn1c(=O)/c(=C2\Sc3cccc(Cl)c3N2C)s/c1=C\c1scc[n+]1Cc1ccccc1 [drawing 57] | 6.96 ± 0.63
CCn1c(=O)/c(=C2\Sc3cccc(F)c3N2C)s/c1=C\c1scc[n+]1Cc1ccccc1 [drawing 56] | 8.29 ± 0.66
CCn1c(=O)/c(=C2\Sc3c(Cl)cccc3N2C)s/c1=C\c1scc[n+]1Cc1ccccc1 | > 30
CCn1c(=O)/c(=C2\Sc3cccc(Cl)c3N2C)s/c1=C\c1cccc[n+]1Cc1ccccc1 | 6.46 ± 0.7
CCn1c(=O)/c(=C2\Sc3cc(Cl)ccc3N2C)s/c1=C\c1scc[n+]1Cc1ccccc1 | 23.9 ± 1.28

same assay, conditions: Mus musculus; second table; read-out: IC50/μM MEF (C57BL/6)

Structure (SMILES) | IC50 [µM]
CCn1c(=O)/c(=C2\Sc3cc(F)ccc3N2C)s/c1=C\c1cccc[n+]1CC | > 30
CCn1c(=O)/c(=C2\Sc3cc(Cl)ccc3N2C)s/c1=C\c1ccc(C#N)c[n+]1Cc1ccccc1 | > 50
CCn1c(=O)/c(=C2\Sc3cccc(F)c3N2C)s/c1=C\c1cccc[n+]1CC | > 30
CCn1c(=O)/c(=C2\Sc3ccc(F)cc3N2C)s/c1=C\c1cccc[n+]1CC | > 30
CCn1c(=O)/c(=C2\Sc3cc(OC(F)(F)F)ccc3N2C)s/c1=C\c1scc[n+]1Cc1ccccc1 | 1.2 ± 0.1
CCn1c(=O)/c(=C2\Sc3ccccc3N2C)s/c1=C\c1scc[n+]1Cc1ccccc1 | 6.8 ± 0.4
CCn1c(=O)/c(=C2\Sc3c(F)cccc3N2C)s/c1=C\c1cccc[n+]1CC | 27.1 ± 3
CCn1c(=O)/c(=C2\Sc3ccccc3N2C)s/c1=C\c1scc[n+]1CC | > 30

Source: patent publication US9808448B2, “Pharmaceutical compounds and use of same in cancer and tauopathies” (THE REGENTS OF THE UNIVERSITY OF MICHIGAN, priority 2013, dated 2017)
